# Tests used:
# [1] = Single dose maximum tolerated dose study; assay type: in vivo, mice; settings: single intravenous dose
# Procedure: Because of too much efficacy of daily dosing for ten days in a pilot xenograft study (likely due to the effects of repeated dosing), a single dose maximum tolerated dose study was conducted using a method similar to that provided in Example 3 in order to have a better dosing schedule for a comparative xenograft study.
# xenograft = experiment: In vivo xenograft study; parameters: species or system female athymic nu/nu mice; settings: as of day 26; intravenously, at 80% and at 50% of the single dose maximum tolerated dose
# Procedure: Briefly, for run of the experiment, a previously untreated group of 8-12 week old mice was intravenously administered a test article prepared in saline and diluted to appropriate concentrations to allow administration volumes of a maximum of 20 mL/kg. Each compound of interest was tested twice: once at 80% of the maximum tolerated dose and once at 50% of the maximum tolerated (maximum tolerated doses calculated on the single dose maximum tolerated dose study).
# Mice were observed daily for clinical signs and body weights were recorded daily (except on weekend days) then biweekly until the end of study. Dosing was terminated for any group in which mean weight loss exceeded 20% or >10% of animals died. Moribund animals were euthanized.
# in vivo = settings: for MTD at 10 days: female, SCID (HsdIcr:Ha (ICR)-Prkdc-scid), iv; for MTD at 10 days / Max. Mean Body Weight change during Rx (%): intravenously once each day for ten days; for Days of Deaths (s = surviving at study end): five mice listed singly; for Day of Max. Mean Body Weight Loss (body weight nadir) / % Rx Related Deaths: once each day for ten days
# Procedure: The purpose of this study was to determine the maximum tolerated dose for pemetrexed (PMX), Compound 20a (from Example 1), Compound 20b (from Example 1), Compound 20c (from Example 1), and Compound 20d (from Example 1) in female SCID mice fed a low folate diet. All compounds were administered intravenously, once each day, for ten consecutive days.
# Calculations were made to provide “dose equivalents” between PMX, Compound 20a, Compound 20b, Compound 20c and Compound 20d, which “dose equivalents” along with the “actual dose” administered are provided in Table 2. All dosagese in this example are expressed in terms of “dose equivalents” and adjustments were made for excipients, salts and hydration state.
# Female SCID mice (HsdIcr:Ha (ICR)-Prkdc-scid) were obtained from Harlan. They were seven weeks old on Day 1 of the experiment. The mice in Groups 1 and 2 were fed irradiated Rodent Diet 5053 (LabDiet™). The mice in Groups 3 through 19 were fed irradiated Folic Acid Deficient Purina TestDiet supplemented with 1% succinylsufathiazol from 14 days prior to dosing until 14 days after dosing was completed, at which time the study was terminated and the mice were then euthanized. All groups received drinking water ad libitum. Mice were housed in static cages in clean rooms that provide H.E.P.A filtered air into the environment at 100 complete air changes per hour. All treatments, body weight determinations, and tumor measurements were carried out in the environment. The environment was controlled to a temperature range of 70°±2° F. and a humidity range of 30-70%. […] Mice found in obvious distress or in a moribund condition were euthanized. The study was carried out in an AAALAC accredited facility.
# Treatments began on Day 1. […] Mice in Groups 3 through 19 were fed irradiated Folic Acid Deficient Purina TestDiet with 1% Succinylsufathiazol for 14 days prior to dosing as well as throughout the entire experiment. All mice were dosed according to individual body weight on the day of treatment (0.2 ml/20 g).
# Mice were weighed on each day of treatment and at least three times weekly thereafter. Individual body weights were recorded three times weekly. […] In this report, a dosage level is described as tolerated if treatment-related weight loss (during and two weeks after treatment) is <20%. Upon death or euthanasia, all mice were necropsied to provide a general assessment of potential cause of death and perhaps target organs for toxicity.
# [2] = in vivo; cited from earlier work
# [3] = low folate diet, 1 mg/kg/inj dose equivalents
# [4] = low folate diet, 3.75 mg/kg/inj dose equivalents
# [5] = low folate diet, dosage levels found tolerated
# [6] = low folate diet, dosage levels found toxic
# [7] = low folate diet, 15 mg/kg/inj dose equivalents
# [8] = low folate diet, 60 mg/kg/inj dose equivalents
structure (smiles),measurement,setting,value
"Nc1nc2[nH]cc(CCc3ccc(C(=O)N[C@@H](CCC(=O)O)C(=O)O)cc3)c2c(=O)[nH]1 [Pemetrexed, pemetrexed]",MTD,"[1]; mouse, in vivo, dose equivalents",50 mg/kg
same,BWL (body weight loss),[1]; tested dose (equiv) 50,−9.7%
same,day (of body weight loss),[1]; tested dose (equiv) 50,2
same,treatment-related deaths,[1]; tested dose (equiv) 50,0
same,BWL (body weight loss),[1]; tested dose (equiv) 80,−3.8%
same,day (of body weight loss),[1]; tested dose (equiv) 80,2
same,treatment-related deaths,[1]; tested dose (equiv) 80,0
same,BWL (body weight loss),[1]; tested dose (equiv) 120,−4.1%
same,day (of body weight loss),[1]; tested dose (equiv) 120,2
same,treatment-related deaths,[1]; tested dose (equiv) 120,0
same,tumor volume compared with saline control,xenograft,significantly less tumor volume than saline control
same,MTD at 10 days,"in vivo; mouse, in vivo, MTD (maximum tolerated dose), mice fed a folate deficient diet, dose equivalents",1 mg/kg
same,MTD at 10 days,"in vivo; mouse, in vivo, maximum tolerated dose, mice fed a conventional diet",< 250 mg/kg
same,maximum treatment-related body weight loss,"in vivo; low folate diet, 1 mg/kg",12.8%
same,Days of Deaths (s = surviving at study end),in vivo; [3],"s, s, s, s, s"
same,tolerability of the dosage level,"in vivo; low folate diet, 1 mg/kg, tolerated if treatment-related weight loss <20%",tolerated
same,Days of Deaths (s = surviving at study end),in vivo; [4],"s, s, s, s, s"
same,tolerability of the dosage level,"in vivo; low folate diet, 3.75 mg/kg, tolerated if treatment-related weight loss <20%",toxic
same,tolerability of the dosage level,"in vivo; low folate diet, 15 mg/kg, tolerated if treatment-related weight loss <20%",toxic
same,tolerability of the dosage level,"in vivo; low folate diet, 60 mg/kg, tolerated if treatment-related weight loss <20%",toxic
same,body weight nadir (Day),"in vivo; low folate diet, across 60, 15 and 3.75 mg/kg",10-12
same,common clinical signs,in vivo; [5],rough pelage
same,necropsy findings,in vivo; [5],nothing significant
same,common clinical signs,in vivo; [6],rough pelage and diarrhea
same,necropsy findings,in vivo; [6],"bloated, air-filled stomachs, pale livers, and necrotic intestines"
same,Max. Mean Body Weight change during Rx (%),in vivo; [3],−12.8%
same,Max. Mean Body Weight change during Rx (%),in vivo; [4],−30.7%
same,Max. Mean Body Weight change during Rx (%),in vivo; [7],−38.4%
same,Max. Mean Body Weight change during Rx (%),in vivo; [8],−38.1%
same,Day of Max. Mean Body Weight Loss (body weight nadir),in vivo; [3],12
same,% Rx Related Deaths,"in vivo; low folate diet, 1 mg/kg/inj dose equivalents, 1 mg/kg",0%
same,% Rx Related Deaths,"in vivo; low folate diet, 1 mg/kg/inj dose equivalents, listed as PMX, 1 mg/kg",no treatment-related mortality
same,% Rx Related Deaths,in vivo; [4],0%
same,Day of Max. Mean Body Weight Loss (body weight nadir),in vivo; [4],12
same,% Rx Related Deaths,in vivo; [7],40%
same,Day of Max. Mean Body Weight Loss (body weight nadir),in vivo; [7],10
same,% Rx Related Deaths,in vivo; [8],100%
same,Day of Max. Mean Body Weight Loss (body weight nadir),in vivo; [8],10
same,tolerability of the dosage level,"in vivo; mouse, in vivo",toxic
same,Lethality,"in vivo; normal diet, 500 mg/kg",100%
same,drug excreted unchanged in the urine,[2],70-90%
same,half-life,[2],3.5 h

# Reference: patent US11612662B2, “Multi-arm polymeric prodrug conjugates of pemetrexed-based compounds” (priority 2010, dated 2023)
